We go through 79 molecules from publication PMC12040169 (PLOS Biology, 2025).

The nature of this series: in vitro. To be noted: human, hela cells, % viability.

As to `O=C(CNS(=O)(=O)c1cccc(Cl)c1)Nc1ccc(-c2nc3ccccc3s2)cc1` [CBK267178], the viability at 28.5 h, 10 µM is 97.5%.
Still for that read-out and setting: the same measure for `NC1CCN(C(=O)c2cc3ccccc3[nH]2)CC1` [CBK013294]: 89.7%; for `Nc1ccccc1NC(=O)NC(=O)c1ccccc1` [CBK022767]: 94%; for `Cc1cc(NC(=O)C2COc3ccccc3O2)c2ccccc2n1` (stereo not shown) [CBK115871]: 91.6%.
For the molecule `COc1ccc(COC(=O)C2CC(=O)N(Cc3ccc(C)cc3)C2)cc1` (stereo not shown) [CBK296624], the viability at 28.5 h, 10 µM worked out at 89%.
As for `CN(C)C(=O)n1cc(Cl)c(-c2ccccc2)n1` [CBK004985], the viability at 28.5 h, 10 µM was 97%.
`CC(C)C(CNCc1ccn(C)c1)c1ccnn1C` (stereo not shown) [CBK304822]: the viability at 28.5 h, 10 µM came out at 91%.
In the case of `Cn1nccc1C(=O)C1CCN(C(=O)c2ccccc2F)CC1` [CBK284425], the viability at 28.5 h, 10 µM amounted to 94.5%.
The same measure, in the same setting: in the case of `CCn1cc(CN(C)Cc2csc(C)n2)c2cc(C(=O)O)ncc21` [CBK306950] it was 116%.
On to `Cc1csc2ncc(C(=O)Nc3ccccc3F)c(=O)n12` [CBK287455], for which the viability at 28.5 h, 10 µM turned out to be 113%.
For the molecule `COc1ccc(-c2cc(C(=O)N/N=C/c3c(C)[nH]c4ccccc34)[nH]n2)cc1` [CBK262884], the viability at 28.5 h, 10 µM is 55.7%.
Still for that read-out and setting: the same measure for `O=C(NCc1cccnc1)c1ccc(-c2ccoc2)nc1` [CBK156275]: 89.6%; for `Cn1nc(-c2ccc(S(=O)(=O)Nc3nc(-c4cccnc4)cs3)s2)cc1C(F)(F)F` [CBK067270]: 88.4%.
Consider `O=S(=O)(Nc1nnn[nH]1)c1cccc2nonc12` [CBK062380], for which the viability at 28.5 h, 10 µM stood at 104%.
As to `N#Cc1ccc(-n2ncc(-c3cccc(C(F)(F)F)c3)n2)cc1` [CBK112675], the viability at 28.5 h, 10 µM is 90.9%.
The same measure, in the same setting: in the case of `O=S(=O)(c1ccc(C(F)(F)F)cc1)c1ccc2nccc(N3CCNCC3)c2c1` [CBK200016C] it was 91.2%.
As to `CN1CCN(CC(=O)Nc2sc3c(c2C(=O)NCc2ccccc2)CCCC3)CC1` [CBK268207], the viability at 28.5 h, 10 µM worked out at 102%.
On the same count and under the same terms, the same measure for `Cc1ccnc2nc(C(=O)OC(C)C(=O)N3CCCCCC3)nn12` (stereo not shown) [CBK306155]: 102%; for `COc1ccc(S(=O)(=O)NCC(=O)O)cc1OC` [CBK034454]: 96.2%; for `COc1ccc(/C=C(\C#N)c2nc3ccccc3n2Cc2c(C)ccc3ccccc23)cc1` [CBK262960]: 119%.
As to `O=c1ccc(-c2ccc(F)cc2)nn1CC1CCNCC1` [CBK284216], the viability at 28.5 h, 10 µM is 86.5%.
On the same count and under the same terms, in the case of `COc1cccc(Nc2cc(-c3cccc(N)c3)ncn2)c1OC` [CBK090726] it was 104%.
`CC(C)(C)OC(=O)N(CCCN1CCN(c2ccc(F)cc2)CC1)c1ccccc1` [CBK016723]: the viability at 28.5 h, 10 µM came out at 89.2%.
Turning to `CS(=O)(=O)N(CC(=O)NCc1ccccn1)c1cc(Cl)cc(Cl)c1` [CBK266459], the viability at 28.5 h, 10 µM was found to be 106%.
In the case of `N#Cc1ccc(NC(=O)Nc2ccccc2)cc1` [CBK086045], the viability at 28.5 h, 10 µM worked out at 87.8%.
Same read-out and setting: the same measure for `CC(C)(C)OC(=O)NCCNC(=O)c1cccnc1NCc1ccc2c(c1)OCO2` [CBK160117]: 104%.
Still for that read-out and setting: in the case of `NS(=O)(=O)c1ccc(NC(=O)CN2CCN(c3cccc(C(F)(F)F)c3)CC2)cc1` [CBK266180] it was 105%.
Regarding `CCn1c(=O)n(CC(=O)N2CCCC3CCCCC32)c2cccnc21` (stereo not shown) [CBK283893], the viability at 28.5 h, 10 µM is 87.3%.
Same read-out and setting: in the case of `C=CCN1C(=O)CC2(C1=O)C(=O)N(C)c1ccc(OC)cc12` (stereo not shown) [CBK075158] it was 101%.
Regarding `Cc1ccc(/N=N/N(CC(O)C(O)C(O)CO)c2ccc(C)c(C)c2)cc1C` (stereo not shown) [CBK262705], the viability at 28.5 h, 10 µM is 90%.
Still for that read-out and setting: the same measure for `COc1ccccc1CN(CC(C)(C)CN)C(=O)Nc1ccc(C)c([N+](=O)[O-])c1` [CBK026816C]: 98.8%; for `Cc1ccc(S(=O)(=O)Nc2nc(C)c(C(=O)N3CCN(C)CC3)s2)cc1` [CBK045812]: 88.3%.
On the same count and under the same terms, in the case of `Cc1ccc2nc(NC(=O)C3COc4ccccc4O3)sc2c1` (stereo not shown) [CBK287366] it was 103%.
As for `CCNC(=O)N1CC2(CCN(Cc3ccc(Cl)c(Cl)c3)CC2)c2ccccc21` [CBK126690], the viability at 28.5 h, 10 µM worked out at 95.4%.
The same measure, in the same setting: in the case of `CC(C)(C)OC(=O)N1CCC(CNS(=O)(=O)c2cccc3cccnc23)CC1` [CBK086017] it was 97.1%; in that of `O=C(C1CCCN(S(=O)(=O)c2ccc(F)cc2)C1)N(Cc1ccccc1)Cc1ccccc1` (stereo not shown) [CBK267652], 108%.
In the case of `CCOc1ccc(N2C(=O)NC(=O)/C(=C\NCCc3c[nH]c4ccccc34)C2=O)cc1` [CBK261125], the viability at 28.5 h, 10 µM (bulk resorufin, single well) was 104%.
Take `Cc1ccc(-c2c(C(=O)NNC(=S)NCC3CCCO3)csc2C)cc1` (stereo not shown) [CBK267062]: the viability at 28.5 h, 10 µM amounted to 86.6%.
As to `CCCCn1c(SCC(O)COCc2ccc(OC)c(OC)c2)n[nH]c1=O` (stereo not shown) [CBK296653], the viability at 28.5 h, 10 µM came out at 99.3%.
On to `COCCNC(=O)c1ccc(-c2cc(C(C)C)ccc2OC)nc1NCC1CC1` [CBK106256], for which the viability at 28.5 h, 10 µM came out at 94.1%.
Same read-out and setting: the same measure for `CCN(Cc1ccccc1)C(=O)NCCCSC` [CBK155214]: 94.3%; for `CC1(C)Cc2nc(N3CCOCC3)ncc2C(NC(=O)c2cn[nH]c2)C1` (stereo not shown) [CBK307409]: 106%.
Take `Cn1c(=O)n(C)c2cc(CNc3ccc(N4CCOCC4)c(C(=O)O)c3)ccc21` [CBK269463]: the viability at 28.5 h, 10 µM came out at 84.7%.
Take `O=C(O)C1CCCN(C(=O)NCc2ccc3c(c2)OCO3)C1` (stereo not shown) [CBK161346]: the viability at 28.5 h, 10 µM is 93.4%.
As for `CCOc1ccc(-c2ccnc(N3C[C@@H](C)O[C@@H](C)C3)n2)cc1C(=O)O` [CBK306584], the viability at 28.5 h, 10 µM worked out at 92.5%.
The same measure, in the same setting: the same measure for `CCNC(=O)NC(=O)C1CCN(CCc2ccc(O)c(OC)c2)CC1` [CBK035184]: 102%; for `CCOc1c(OC)cc(C#N)cc1C(=O)O` [CBK269925]: 87.3%; for `Cc1cc(-c2cn3cc(C(=O)N4CCCCC4)nc3c(=O)n2C)c(C)o1` [CBK306890]: 86.6%.
`Cc1cc(NS(=O)(=O)c2ccc3oc(=O)ccc3c2)n(C)n1` [CBK067250]: the viability at 28.5 h, 10 µM came to 99.6%.
Take `CC1CCCN(C(=O)CCn2c(C(F)F)cc3cccnc32)C1` (stereo not shown) [CBK285025]: the viability at 28.5 h, 10 µM turned out to be 97.9%.
As to `COc1ccc(-c2[nH]c3ncccc3c2CN2CCSCC2)cc1` [CBK285338], the viability at 28.5 h, 10 µM worked out at 91.9%.
The same measure, in the same setting: in the case of `CC1(CNC(=O)C2CC(=O)N(C3CCCCC3)C2)COC1` (stereo not shown) [CBK281754] it was 97%; in that of `CCOC(=O)C1CCN(Cc2nc(-c3ccc(OC)c(OC)c3)no2)CC1` [CBK268852], 92.4%; in that of `COc1c(I)cc(Br)cc1/C=N/NC(=O)CC#N` [CBK025764], 91.8%.
The same measure, in the same setting: the same measure for `CCC(=O)N1CCC2(C/C=C/CC(=O)Nc3cccc(n3)C3CN(CCO3)C(=O)CN(C)C2=O)CC1` (stereo not shown) [CBK292004]: 105%.
Take `CC(NC(=O)C1CCN(Cc2cccnc2)CC1)c1ccc(F)cc1` (stereo not shown) [CBK148032]: the viability at 28.5 h, 10 µM was determined as 94.4%.
Same read-out and setting: in the case of `O=C1NC2(CCN(C(=O)Cc3c(F)ccc(F)c3F)CC2)Oc2ccc(-c3ccoc3)cc21` [CBK115848] it was 83.2%; in that of `Cc1nn(Cc2c(F)cccc2Cl)c(C)c1NC(=S)Nc1ccc(S(N)(=O)=O)cc1` [CBK267121], 101%.
Consider `OC(CN1CCC(O)(c2ccc3c(c2)OCO3)CC1)c1ccc2c(c1)CCC2` (stereo not shown) [CBK286326], for which the viability at 28.5 h, 10 µM was 99.6%.
Same read-out and setting: in the case of `CC(C)Oc1ncc(C(=O)Nc2ccc(OCCC(N)=O)cc2)cc1Cl` [CBK305750] it was 102%.
For `COc1ccc(N(C)C(=O)N[C@@H]2CC[C@@]3(c4ccc(OC)c(OC)c4)CCN(C)[C@H]3C2)cc1` [CBK045653T], the viability at 28.5 h, 10 µM came to 112%.
In the case of `COc1ccc(CN2CCCN(c3cc(OCC4COc5ccccc5O4)ncn3)CC2)cc1` (stereo not shown) [CBK083255T], the viability at 28.5 h, 10 µM came out at 88%.
Still for that read-out and setting: the same measure for `Fc1ccc(-c2ccc(N3CCN(c4ccncc4)CC3)nc2)cc1Cl` [CBK036821]: 111%.
In the case of `CCc1cccc(C)c1NC(=O)CSc1nnc(-c2cccnc2)n1C` [CBK267582], the viability at 28.5 h, 10 µM was determined as 88.4%.
As to `COc1ccc(Cn2nc(NC(=O)c3cn(C)c4ccccc34)c3ccccc32)cc1` [CBK048344], the viability at 28.5 h, 10 µM is 57.2%.
Consider `O=C(O)c1ccc(N2C(=O)c3ccc(Oc4ccc(S(=O)(=O)c5ccc(C(=O)O)cc5)cc4)cc3C2=O)cc1` [CBK263603], for which the viability at 28.5 h, 10 µM was found to be 96.8%.
Turning to `Cc1ccc(Cn2nc(C)c(NC(=O)c3nc4ncccn4n3)c2C)cc1` [CBK268912], the viability at 28.5 h, 10 µM came out at 90.9%.
Same read-out and setting: in the case of `O=C(NCCCn1ccnn1)c1cccc(S(=O)(=O)N2CCCCC2)c1` [CBK304660] it was 104%.
The same measure, in the same setting: the same measure for `CCn1ncc(CN(C)C(=O)CCC2CCCCN2C)c1C` (stereo not shown) [CBK307329]: 116%; for `Cn1c(N2CCCC(C(N)=O)C2)nc2ccccc21` (stereo not shown) [CBK282372]: 105%; for `Cc1cccc(-c2nnc(-c3cccc(NC(=O)COc4ccccc4)c3)o2)c1` [CBK269659]: 95.8%.
With `Cc1cccc(C(C)(C)C)c1OCCn1ccnc1` [CBK265084], the viability at 28.5 h, 10 µM worked out at 109%.
For the molecule `Cc1ccc(S(N)(=O)=O)cc1NC(=O)c1ccco1` [CBK004204], the viability at 28.5 h, 10 µM amounted to 93.7%.
The same measure, in the same setting: in the case of `COC1CCN(C(=O)OCCc2cccnc2)CC1` [CBK200161] it was 89.2%; in that of `CCN(CC)C(=O)C1CCCN(C(=O)NCCOC)C1` (stereo not shown) [CBK156129], 99.2%; in that of `Cc1cc(S(=O)(=O)N(C)CCC#N)c(C)cc1Cl` [CBK043787], 111%.
Consider `CC(Cc1cccs1)NC(=O)C(C)n1ccnc1` (stereo not shown) [CBK282050], for which the viability at 28.5 h, 10 µM was determined as 89.9%.
The same measure, in the same setting: the same measure for `CCOC(=O)C1CSCCN1C(=O)c1ccc(-c2cnco2)cc1` (stereo not shown) [CBK304208]: 84.9%; for `CC(C)c1ccc(NC(=O)O[C@@H]2CO[C@H]3[C@@H]2OC[C@@H]3NC(=O)C2CC2)cc1` [CBK289471]: 99%.

In general, viability refers to a read-out of living cells in per cent, often relative to untreated cells.
